Data reported in PubChem BioAssay (NCI).
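Each compound was tested at five concentrations against cells in 96-well plates for 48 hours. At the TGI there is no net growth.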

What was measured:
Assay in all cases: inhibition of tumour cell growth, NCI panel, 48 h
[1] = test system: DU-145 prostate
[2] = test system: SK-MEL-28 melanoma
[3] = test system: T-47D breast
[4] = test system: HT29 colon
[5] = test system: NCI-H23 lung
[6] = test system: UACC-257 melanoma
[7] = test system: CCRF-CEM leukemia
[8] = test system: SW-620 colon
[9] = test system: IGROV1 ovarian
[10] = test system: HS 578T breast
[11] = test system: SK-OV-3 ovarian
[12] = test system: RPMI-8226 leukemia
[13] = test system: OVCAR-3 ovarian
[14] = test system: MALME-3M melanoma
[15] = test system: SF-295 CNS
[16] = test system: SF-268 CNS
[17] = test system: SK-MEL-2 melanoma
[18] = test system: SF-539 CNS
[19] = test system: HL-60(TB) leukemia
[20] = test system: PC-3 prostate
[21] = test system: NCI-H522 lung
[22] = test system: OVCAR-5 ovarian
[23] = test system: OVCAR-8 ovarian
[24] = test system: 786-0 renal
[25] = test system: NCI/ADR-RES ovarian
[26] = test system: KM12 colon
[27] = test system: EKVX NSCLC
[28] = test system: HCT-116 colon
[29] = test system: NCI-H460 lung
[30] = test system: MDA-N
[31] = test system: A549 NSCLC
[32] = test system: SR leukemia
[33] = test system: UACC-62 melanoma
[34] = test system: SN12C renal
[35] = test system: MOLT-4 leukemia
[36] = test system: TK-10 renal
[37] = test system: MDA-MB-231 breast
[38] = test system: UO-31 renal
[39] = test system: MDA-MB-435
[40] = test system: U251 CNS
[41] = test system: SNB-75 CNS
[42] = test system: NCI-H226 lung
[43] = test system: SK-MEL-5 melanoma
[44] = test system: COLO 205 colon
[45] = test system: HOP-62 NSCLC
[46] = test system: SNB-19 CNS
[47] = test system: ACHN renal
[48] = test system: K-562 leukemia
[49] = test system: LOX IMVI melanoma
[50] = test system: HOP-92 NSCLC
[51] = test system: HCC-2998 colon
[52] = test system: HCT-15 colon
[53] = test system: M14 melanoma
[54] = test system: MCF7 breast
[55] = test system: RXF 393 renal
[56] = test system: A498 renal
[57] = test system: BT-549 breast
[58] = test system: OVCAR-4 ovarian
[59] = test system: CAKI-1 renal

COc1cc2c3c(c1Oc1nnnn1-c1ccccc1)-c1c(ccc4c1OCO4)C[C@H]3N(C)CC2
TGI [1]: > 100 µM | TGI [2]: 37.1 µM | TGI [3]: > 100 µM | TGI [4]: 41.9 µM | TGI [5]: > 100 µM | TGI [6]: 40 µM | TGI [7]: > 100 µM | TGI [8]: > 100 µM | TGI [9]: > 100 µM | TGI [10]: > 100 µM | TGI [11]: > 100 µM | TGI [12]: > 100 µM | TGI [13]: > 100 µM | TGI [14]: 34.8 µM | TGI [15]: > 100 µM | TGI [16]: > 100 µM | TGI [17]: > 100 µM | TGI [18]: > 100 µM | TGI [19]: > 100 µM | TGI [20]: > 100 µM | TGI [21]: 94.6 µM | TGI [22]: > 100 µM | TGI [23]: > 100 µM | TGI [24]: 39.7 µM | TGI [25]: > 100 µM | TGI [26]: > 100 µM | TGI [27]: > 100 µM | TGI [28]: > 100 µM | TGI [29]: > 100 µM | TGI [30]: 55.1 µM | TGI [31]: > 100 µM | TGI [32]: > 100 µM | TGI [33]: 29 µM | TGI [34]: > 100 µM | TGI [35]: > 100 µM | TGI [36]: > 100 µM | TGI [37]: > 100 µM | TGI [38]: > 100 µM | TGI [39]: 51.3 µM | TGI [40]: > 100 µM | TGI [41]: 91.3 µM | TGI [42]: > 100 µM | TGI [43]: > 100 µM | TGI [44]: > 100 µM | TGI [45]: > 100 µM | TGI [46]: > 100 µM | TGI [47]: 88.7 µM | TGI [48]: > 100 µM | TGI [49]: 77.5 µM | TGI [50]: 78.6 µM | TGI [51]: 36.3 µM | TGI [52]: 73.1 µM | TGI [53]: 37.5 µM

CCOC(=O)C1CSCCSC1
TGI [54]: > 100 µM | TGI [1]: > 100 µM | TGI [2]: > 100 µM | TGI [4]: > 100 µM | TGI [5]: > 100 µM | TGI [6]: > 100 µM | TGI [7]: > 100 µM | TGI [8]: > 100 µM | TGI [10]: > 100 µM | TGI [11]: > 100 µM | TGI [15]: > 100 µM | TGI [16]: > 100 µM | TGI [20]: > 100 µM | TGI [21]: > 100 µM | TGI [23]: > 100 µM | TGI [25]: > 100 µM | TGI [26]: > 100 µM | TGI [28]: > 100 µM | TGI [29]: 57.6 µM | TGI [30]: > 100 µM | TGI [31]: > 100 µM | TGI [32]: > 100 µM | TGI [34]: > 100 µM | TGI [35]: > 100 µM | TGI [55]: > 100 µM | TGI [56]: > 100 µM | TGI [36]: > 100 µM | TGI [37]: > 100 µM | TGI [38]: > 100 µM | TGI [39]: > 100 µM | TGI [40]: > 100 µM | TGI [41]: > 100 µM | TGI [42]: > 100 µM | TGI [43]: > 100 µM | TGI [44]: > 100 µM | TGI [46]: > 100 µM | TGI [47]: > 100 µM | TGI [48]: > 100 µM | TGI [49]: > 100 µM | TGI [50]: > 100 µM | TGI [51]: > 100 µM | TGI [52]: > 100 µM

CC(CN(C)C)C(C#N)(c1ccccc1)c1ccccc1 (stereo not drawn)
TGI [54]: > 100 µM | TGI [1]: > 100 µM | TGI [2]: > 100 µM | TGI [3]: > 100 µM | TGI [4]: > 100 µM | TGI [5]: > 100 µM | TGI [6]: > 100 µM | TGI [7]: > 100 µM | TGI [8]: > 100 µM | TGI [9]: > 100 µM | TGI [10]: > 100 µM | TGI [11]: > 100 µM | TGI [57]: > 100 µM | TGI [12]: > 100 µM | TGI [13]: > 100 µM | TGI [14]: > 100 µM | TGI [15]: > 100 µM | TGI [16]: > 100 µM | TGI [17]: > 100 µM | TGI [18]: > 100 µM | TGI [19]: > 100 µM | TGI [20]: > 100 µM | TGI [21]: > 100 µM | TGI [22]: > 100 µM | TGI [58]: > 100 µM | TGI [23]: > 100 µM | TGI [24]: > 100 µM | TGI [25]: > 100 µM | TGI [26]: > 100 µM | TGI [27]: > 100 µM | TGI [28]: > 100 µM | TGI [29]: > 100 µM | TGI [30]: > 100 µM | TGI [31]: > 100 µM | TGI [33]: > 100 µM | TGI [34]: > 100 µM | TGI [35]: > 100 µM | TGI [55]: > 100 µM | TGI [59]: > 100 µM | TGI [56]: > 100 µM | TGI [36]: > 100 µM | TGI [37]: > 100 µM | TGI [38]: > 100 µM | TGI [39]: > 100 µM | TGI [40]: > 100 µM | TGI [41]: > 100 µM | TGI [42]: > 100 µM | TGI [43]: > 100 µM | TGI [44]: > 100 µM | TGI [45]: > 100 µM | TGI [46]: > 100 µM | TGI [47]: > 100 µM | TGI [48]: > 100 µM | TGI [49]: > 100 µM | TGI [50]: > 100 µM | TGI [51]: > 100 µM | TGI [52]: > 100 µM | TGI [53]: > 100 µM
